We go through six compounds from article PMC7076694, “The Qi Site of Cytochrome b is a Promiscuous Drug Target in Trypanosoma cruzi and Leishmania donovani” (ACS Infectious Diseases, 2020).

Like-named read-outs stand apart in the source and are kept apart here.

Test [1] concerns T. cruzi epimastigotes. Description: microbe, parasite or virus in culture. To be noted: Trypanosoma cruzi. It is filed as cell-based.
In test [2] the test system is L. donovani promastigotes. Description: microbe, parasite or virus in culture. It counts as cell-based, Leishmania donovani. Conditions: for EC50: Leishmania donovani.
In test [3] the test system is L. donovani Intramacrophage Amastigotes. Description: L. donovani intramacrophage amastigote drug sensitivity. It is filed as cell-based. To be noted: Leishmania donovani, read-out: EC50 values, L. donovani Intra-MAC. The method, then: (§1) T. cruzi and L. donovani intracellular amastigote drug sensitivity assays were conducted as previously described.[42],[43]
Test [4] concerns T. brucei Bloodstream Forms. Description: T. brucei bloodstream form drug sensitivity. It is filed as cell-based, Trypanosoma brucei. To be noted: read-out: EC50 values, T. brucei BSF. The method, then:
EC50 values for test compounds were determined as previously described.[40]

Test [5] relates to T. brucei Procyclics. Briefly: T. brucei procyclic drug sensitivity (resazurin). It counts as cell-based, Trypanosoma brucei. To be noted: read-out: EC50 values, T. brucei Pro. The method, then: To examine the effects of test compounds on growth, mid log procyclics were seeded into 96-well plates at a cell density of 5 × 10^5 cells mL^–1. Cells were exposed to test compounds over a range of concentrations (2-fold serial dilutions). Following 72 h of incubation in the presence of drug, 500 μM resazurin was added to each well and fluorescence measured after a further 2 h incubation.

Test [6] has as its system HepG2 Cells. Briefly: HepG2 cell potency. It counts as cell-based. Conditions: Homo sapiens. How it is done:
Table 1 Compound Efficacy: Potencies of Compounds Were Determined against L. donovani Promastigotes (Pro), L. donovani Intramacrophage Amastigotes (Intra-MAC), T. cruzi Epimastigotes (Epi), T. cruzi Intra-Vero Cells (Intra-Vero), T. brucei Bloodstream Forms (BSF), T. brucei Procyclics (Pro), and HepG2 Cells ^a | column: HepG2

The target in test [7] is complex III (cytochrome bc1 complex) (Leishmania donovani, UniProt A5HU08). Briefly: biochemical. It counts as biochemical.
Test [8] has as its target complex III (cytochrome bc1 complex) (Trypanosoma cruzi, UniProt Q9T479). Briefly: Complex III (cytochrome c reduction) assay, T. cruzi lysate. It is filed as biochemical. To be noted: mitochondria-enriched lysate of epimastigotes.
Test [9] concerns T. cruzi Intra-Vero Cells (intracellular amastigotes). The arrangement: method as in PMID 26186534. Conditions: reported previously ref 14; cited from earlier work.
Test [10] concerns T. cruzi epimastigotes. Also on record: method as in PMID 26186534. To be noted: reported previously ref 14; read-out: O2 consumption, IC50 values, T. cruzi; cited from earlier work.
The test system of test [11] is T. cruzi intracellular amastigotes. The arrangement: method as in PMID 25740547. Conditions: high-throughput screening hit ref 13; read-out: EC50 against T. cruzi intracellular amastigotes; cited from earlier work.
Test [12] concerns T. cruzi epimastigotes. Briefly: T. cruzi epimastigote respiration (O2 consumption, MitoXpress-Xtra). It counts as cell-based. To be noted: Trypanosoma cruzi, read-out: O2 consumption, IC50 values, T. cruzi. How it is done: Compounds were predispensed (150 nL well^–1) into 384-well assay plates using an Echo liquid handler (Labcyte Inc.). […] The negative control for this assay was 0.2% DMSO, equivalent to the final concentration of solvent used in drug dilutions.
Our O2 consumption assay was an adaptation of the assay described by Khare and colleagues.[14] Briefly, assay buffer (250 mM sucrose, 15 mM KCl, 5 mM MgCl2, 1 mM EGTA, 30 mM K2HPO4, pH 7.4; 25 μL) was added to 384-well assay plates and incubated at 37 °C for 10 min. Mid log T. cruzi epimastigotes were harvested (1600g for 10 min at 4 °C), washed three times with buffer A (10 mM Tris-HCl, pH 7.4, 230 mM mannitol, 70 mM sucrose, 0.2 mM EDTA, 0.2% bovine serum albumin, 0.5 mM PMSF), and finally resuspended at 1.5 × 10^8 epimastigotes mL^–1. Following resuspension, 3 × 10^6 epimastigotes (20 μL) were dispensed into each well followed by MitoXpress-Xtra probe (15 μL, Agilent) resulting in a final assay volume of 60 μL. Plates were gently shaken, and 30 μL of HS mineral oil (Agilent) was then added to each well to prevent oxygen exchange between the assay buffer and air. Plates were incubated for 90 min at 37 °C, and fluorescence was then measured using an EnVision MultiMode plate reader (PerkinElmer) using excitation and emission wavelengths of 380 and 650 nm, respectively.
Data were normalized to percent of biological response by using positive (i.e., highest response achieved using a chemical tool compound, RactinomycinA) or negative (i.e., lowest response achieved in the absence of any testing compound, RDMSO) controls by using the following equation: [drawing 3] where Rx is the assay response measured in the presence of test compounds.

Test [13] relates to T. cruzi Intra-Vero Cells (intracellular amastigotes). Briefly: T. cruzi intracellular amastigote (Intra-Vero) drug sensitivity. It counts as cell-based. To be noted: Trypanosoma cruzi; intracellular amastigotes in Vero cells. How it is done: as §1
Test [14] addresses T1, complex III (cytochrome bc1 complex) (Leishmania donovani, UniProt A5HU08).
T1 sequence (A5HU08 1-290): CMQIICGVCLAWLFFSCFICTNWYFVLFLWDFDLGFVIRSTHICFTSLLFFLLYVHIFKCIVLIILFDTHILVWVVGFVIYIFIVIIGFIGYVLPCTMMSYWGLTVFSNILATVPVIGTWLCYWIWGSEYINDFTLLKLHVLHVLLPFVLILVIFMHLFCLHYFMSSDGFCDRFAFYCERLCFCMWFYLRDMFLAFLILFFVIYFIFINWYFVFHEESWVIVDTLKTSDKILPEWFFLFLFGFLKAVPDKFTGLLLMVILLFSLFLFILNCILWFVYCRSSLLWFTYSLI
T1 sequence (A0A3S7WPP0 1-258 partner): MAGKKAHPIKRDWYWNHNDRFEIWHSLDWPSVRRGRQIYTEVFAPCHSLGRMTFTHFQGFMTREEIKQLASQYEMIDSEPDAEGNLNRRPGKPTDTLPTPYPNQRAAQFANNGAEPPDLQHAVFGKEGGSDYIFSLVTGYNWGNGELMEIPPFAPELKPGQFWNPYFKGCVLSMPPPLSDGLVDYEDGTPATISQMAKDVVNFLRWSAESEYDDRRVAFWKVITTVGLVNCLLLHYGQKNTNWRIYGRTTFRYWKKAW
Description: biochemical. To be noted: read-out: complex III IC50 values, Compound 1 RES1 lysate; lysate of L. donovani Compound 1 RES1 cell line. It is filed as biochemical.

Test [15] deals with L. donovani intracellular amastigotes within macrophages. Description: microbe, parasite or virus in culture. To be noted: Leishmania donovani. It is filed as cell-based.
The target of test [16] is T2, complex III (cytochrome bc1 complex) (Leishmania donovani, UniProt A5HU08, F187I).
T2 sequence (A5HU08 1-290 F187I): T1 sequence (A5HU08 1-290)
T2 sequence (A0A3S7WPP0 1-258 partner): T1 sequence (A0A3S7WPP0 1-258 partner)
Briefly: biochemical. It counts as biochemical.

Setting [17] is: wild-type epimastigotes, read-out: EC50 values, T. cruzi Epi.
[18] abbreviates: wild-type promastigotes, read-out: EC50 values, L. donovani Pro.
The mark [19] stands for this setting: Trypanosoma brucei, bloodstream form.
[20] abbreviates: HepG2 cells, read-out: EC50 values, HepG2.
Where [21] appears, read: epimastigotes (3 × 10^6), MitoXpress-Xtra probe.
[22] abbreviates: Macrophage, read-out: Leishmania EC50, Compound 1 RES1.
Where [23] appears, read: Macrophage, read-out: Leishmania EC50, Compound 2 RES1.
The mark [24] stands for this setting: intra-macrophage, WT parasites, read-out: Leishmania EC50, WT.

With `CCc1c(C)c(C#N)c2nc3ccccc3n2c1O` [GNF7686, reference compound], the EC50 in [1] (setting [17]) was 710 ± 17 nM; in test [2] (setting [18]), 570 ± 51 nM; in test [3], over 50000 nM; in test [4] (setting [19]) it was over 50000 nM; in test [5] (Trypanosoma brucei, procyclics), 521 nM; in test [5] (procyclics) it was 520 ± 13 nM. Besides, the EC50 in [6] (setting [20]) is over 50000 nM; in [9] it was 150 ± 30 nM. In [2] (compound 1-selected clone, relative to wild-type), the “relative sensitivity of L. donovani promastigotes bearing cytochrome b C222F mutation” value is on record as “markedly cross-resistant”. In addition, in test [2] (compound 1-selected clones, relative to wild-type), the “relative sensitivity of L. donovani promastigotes bearing cytochrome b G37A mutation” value was “remaining sensitive”. Also, the IC50 is 1600 ± 300 nM in test [7], 550 ± 97 nM in test [8] and 210 nM in [10].
Turning to `Cc1nc2nc(C)c(Cc3ccc(C(C)C)cc3)c(=O)n2[nH]1` [TCMDC-143087], the EC50 in test [11] is 250 nM.
For `CCCCCC[C@H]1C(=O)O[C@H](C)[C@H](NC(=O)c2cccc(NC=O)c2O)C(=O)O[C@@H](C)[C@@H]1OC(=O)CC(C)C` [antimycin A, reference compound], the EC50 in test [1] (setting [17]) was 28 ± 1 nM; in test [2] (setting [18]), 2 ± 0.1 nM; in test [4] (Trypanosoma brucei), over 50000 nM; in [5] (Trypanosoma brucei) it was 18 ± 0.5 nM; in test [6] (HepG2, read-out: EC50 values, HepG2), under 1000 nM. For the same compound, the half-inhibitory concentration (IC50) in test [12] is 200 ± 36 nM.
For the compound `Cc1nn2c(=O)c(Cc3ccc(Cl)cc3)c(C)[nH]c2c1C` [compound 1], the EC50 in test [1] (WT epimastigotes, resistance study, read-out: EC50 against WT T. cruzi (Figure 2)) turned out to be 120 ± 6 nM; in [1] (compound 1-resistant epimastigote clone RES I, read-out: EC50 against T. cruzi RES I), 1400 ± 78 nM; in test [1] (compound 1-resistant epimastigote clone RES II, read-out: EC50 against T. cruzi RES II), 2500 ± 62 nM; in [1] (compound 1-resistant epimastigote clone RES III, read-out: EC50 against T. cruzi RES III) it was 3800 ± 160 nM; in test [1] (setting [17]), 210 ± 7 nM; in [13] it was 20 ± 3 nM. Also, the EC50 was found to be 21.5 ± 0.5 nM in test [2] (WT promastigotes, resistance study, read-out: EC50 against WT L. donovani (Figure 2)); 1300 ± 14 nM in [2] (compound 1-resistant promastigote clone RES I, read-out: EC50 against L. donovani RES I); 1300 ± 96 nM in [2] (compound 1-resistant promastigote clone RES II, read-out: EC50 against L. donovani RES II); 790 ± 27 nM in [2] (compound 1-resistant promastigote clone RES III, read-out: EC50 against L. donovani RES III); 19 ± 1 nM in test [2] (setting [18]); 1500 ± 400 nM in test [3]. Moreover, the half-maximal effective concentration (EC50) in test [4] (setting [19]) was 6600 ± 470 nM; in [4] (bloodstream form, listed as DDD01542111 (compound 1)), 6700 ± 470 nM; in [5] (Trypanosoma brucei, procyclics) it was 97 ± 3 nM; in test [6] (setting [20]), over 50000 nM; in [15] (setting [22]) it was 1300 nM; in test [15] (setting [23]), 20 nM. In [15] (setting [24]), the concentration giving a half-maximal response (EC50) was 100 nM. Further, the IC50 in test [7] came to 44 ± 7 nM; in [14], 220 ± 51 nM; in test [8], 72 ± 16 nM; in test [12] (setting [21]), 150 ± 36 nM.
For `Cc1cc(C)c2c(N)c(C(=O)N3CCC(C)(C)c4ccccc43)sc2n1` [compound 2], the EC50 in [1] (setting [17]) is 71 ± 2 nM; in [13], 30 ± 10 nM; in [2] (setting [18]) it was 24 ± 2 nM; in [3], 1100 ± 600 nM; in test [4] (setting [19]), 8000 ± 970 nM; in test [5] (Trypanosoma brucei, procyclics), 140 ± 14 nM. The EC50 in [6] (setting [20]) was over 50000 nM; in test [15] (setting [22]) it was 30 nM; in test [15] (setting [23]), 4400 nM; in test [15] (setting [24]), 400 nM. In addition, the 50% inhibitory concentration (IC50) was found to be 99 ± 13 nM in test [7], 4200 ± 500 nM in test [16], 100 ± 24 nM in test [8] and 510 ± 119 nM in test [12] (setting [21]).
In the case of `CC(=O)Nc1ccc2[nH]c(=O)n([C@H]3CC[C@H](C(C)C)CC3)c(=O)c2c1` [compound 3], the EC50 in test [1] (setting [17]) was 320 ± 12 nM; in test [13], 150 ± 46 nM; in test [2] (setting [18]) it was 1640 ± 54 nM; in [3], over 50000 nM; in test [4] (setting [19]) it was 8700 ± 470 nM; in test [5] (Trypanosoma brucei, procyclics), 88 ± 2 nM. Moreover, the EC50 in [6] (setting [20]) was 7300 ± 60 nM. Further, the half-maximal inhibitory concentration (IC50) in [7] was over 13000 nM; in [8], 86 ± 39 nM; in test [12] (setting [21]), 190 ± 38 nM.
